Source: ChEMBL document CHEMBL5614438, “CETZOLE Analogs as Potent Ferroptosis Inducers and Their Target Identification Using Covalent/Affinity Probes” (J Med Chem, 2024)
Calls of active or inactive are those of the source. No cut-off for these calls is given here.

Tests used:
[1] = tested on: NCI-H522; assay: Cytotoxicity against human NCI-H522 cells assessed as reduction in cell viability incubated for 3 days by methylene blue staining based spectrophotometric analysis; type: functional; conditions: NCI-H522, 72 h, time 3 day
[2] = tested on: NCI-H522; assay: Cytotoxicity against human NCI-H522 cells overexpressing GFP-tagged SLC7A11 assessed as reduction in cell viability incubated for 3 days by methylene blue staining based spectrophotometric analysis; type: functional; conditions: NCI-H522, 72 h, time 3 day
[3] = tested on: NCI-H522; assay: Cytotoxicity against human NCI-H522 cells overexpressing GFP-tagged RV assessed as reduction in cell viability incubated for 3 days by methylene blue staining based spectrophotometric analysis; type: functional; conditions: NCI-H522, 72 h, time 3 day
[4] = tested on: HT-1080; assay: Cytotoxicity against human HT-1080 cells assessed as reduction in cell viability incubated for 3 days by methylene blue staining based spectrophotometric analysis; type: functional; conditions: HT-1080, 72 h, time 3 day
[5] = tested on: U2OS; assay: Cytotoxicity against human U2OS cells assessed as reduction in cell viability incubated for 3 days by methylene blue staining based spectrophotometric analysis; type: functional; conditions: 72 h, time 3 day
[6] = tested on: MDA-MB-231; assay: Cytotoxicity against human MDA-MB-231 cells assessed as reduction in cell viability incubated for 3 days by methylene blue staining based spectrophotometric analysis; type: functional; conditions: MDA-MB-231, 72 h, time 3 day
[7] = target: Glucose-6-phosphate 1-dehydrogenase (Homo sapiens) (UniProt P11413); assay: Inhibition of G6PD in human HCT-116 cells using G6P as substrate at 25 uM incubated for 20 mins followed by G6P and […]; type: cell-based
[8] = target: T1, Peroxiredoxin-4 (Homo sapiens) (UniProt Q13162); assay: Inhibition of PRDX4 (unknown origin)
T1 sequence (whole entry): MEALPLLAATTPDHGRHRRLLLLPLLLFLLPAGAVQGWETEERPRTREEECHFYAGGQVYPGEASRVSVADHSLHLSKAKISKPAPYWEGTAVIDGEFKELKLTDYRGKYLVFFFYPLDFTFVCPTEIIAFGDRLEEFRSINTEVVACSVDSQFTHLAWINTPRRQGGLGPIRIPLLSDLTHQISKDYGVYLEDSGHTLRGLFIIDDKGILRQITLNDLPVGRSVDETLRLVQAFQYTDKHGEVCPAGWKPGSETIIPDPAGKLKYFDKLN

[9] = tested on: WI-38; assay: Cytotoxicity against human WI-38 cells assessed as reduction in cell viability incubated for 3 days by methylene blue staining based spectrophotometric analysis; type: toxicity; conditions: wi-38, 72 h, time 3 day
[10] = tested on: MEF; assay: Cytotoxicity against mouse MEF cells assessed as reduction in cell viability incubated for 3 days by methylene blue staining based spectrophotometric analysis; type: toxicity; conditions: 72 h, time 3 day
[11] = tested on: NCI-H522; assay: Induction of cell death in human NCI-H522 cells at 10 uM incubated for 3 to 4 hrs by live cell imaging analysis relative to control; type: functional; conditions: time 3-4 hrs
[12] = tested on: NCI-H522; assay: Cytotoxicity against human NCI-H522 cells assessed as reduction in cell viability at 1 uM incubated for 3 days by methylene blue staining based spectrophotometric analysis; type: functional; conditions: time 3.0 day
[13] = tested on: HT-1080; assay: Cytotoxicity against human HT-1080 cells assessed as reduction in cell viability at 1 uM incubated for 3 days by methylene blue staining based spectrophotometric analysis; type: functional; conditions: time 3.0 day
[14] = tested on: WI-38; assay: Cytotoxicity against human WI-38 cells assessed as reduction in cell viability at 1 uM incubated for 3 days by methylene blue staining based spectrophotometric analysis; type: toxicity; conditions: wi-38, 72 h, time 3 day
[15] = tested on: MEF; assay: Cytotoxicity against mouse MEF cells assessed as reduction in cell viability at 1 uM incubated for 3 days by methylene blue staining based spectrophotometric analysis; type: toxicity; conditions: 72 h, time 3 day
[16] = tested on: NCI-H522; assay: Induction of ferroptosis in human NCI-H522 cells assessed as reduction in cell viability at 3.3 uM incubated for 3 days in presence of liproxstatin-1 by methylene blue staining based spectrophotometric analysis; type: functional; conditions: time 3.0 day
[17] = tested on: NCI-H522; assay: Induction of ferroptosis in human NCI-H522 cells assessed as reduction in cell viability at 13.68 uM incubated for 3 days in presence of liproxstatin-1 by methylene blue staining based spectrophotometric analysis; type: functional; conditions: time 3.0 day
[18] = tested on: NCI-H522; assay: Induction of ferroptosis in human NCI-H522 cells assessed as increase in intracellular lipid peroxidation accumulation at 0.39 uM incubated for 6 hrs by C11 BODIPY 581/591 staining based flow cytometry; type: functional, cell-based
[19] = tested on: NCI-H522; assay: Induction of ferroptosis in human NCI-H522 cells assessed as cell death at 0.39 uM incubated for 3 days by methylene blue staining based spectrophotometric analysis relative to control; type: functional; conditions: time 3 day
[20] = tested on: NCI-H522; assay: Induction of ferroptosis in human NCI-H522 cells assessed as increase in intracellular lipid peroxidation accumulation at 0.36 uM incubated for 6 hrs by C11 BODIPY 581/591 staining based flow cytometry; type: functional, cell-based
[21] = tested on: NCI-H522; assay: Induction of ferroptosis in human NCI-H522 cells assessed as cell death at 0.38 uM incubated for 3 days by methylene blue staining based spectrophotometric analysis relative to control; type: functional; conditions: time 3 day
[22] = target: Glucose-6-phosphate 1-dehydrogenase (Homo sapiens) (UniProt P11413); assay: Inhibition of G6PD in human HCT-116 cells using G6P as substrate assessed as reduction in enzyme activity by measuring absorbance at 100 uM incubated for 20 mins followed by G6P and […]; type: cell-based
[23] = target: Phospholipid hydroperoxide glutathione peroxidase GPX4 (Homo sapiens) (UniProt P36969); assay: Inhibition of recombinant GPX4 (unknown origin) at 100 uM incubated for 60 mins followed by NADPH addition
[24] = target: Glucose-6-phosphate 1-dehydrogenase (Homo sapiens) (UniProt P11413); assay: Inhibition of G6PD in human HCT-116 cells using G6P as substrate at 100 uM incubated for 20 mins followed by G6P and […]; type: cell-based
[25] = tested on: NCI-H522; assay: Induction of cell death in human NCI-H522 cells at 10 uM incubated for 4 to 5 hrs by live cell imaging analysis relative to control; type: functional; conditions: time 4-5 hrs
[26] = tested on: NCI-H522; assay: Induction of cell death in human NCI-H522 cells at 10 uM incubated for 4 to 5 hrs by live cell imaging analysis; type: functional, cell-based; conditions: time 4-5 hrs
[27] = tested on: NCI-H522; assay: Induction of ferroptosis in human NCI-H522 cells assessed as increase in intracellular lipid peroxidation accumulation at 7.68 uM incubated for 6 hrs by C11 BODIPY 581/591 staining based flow cytometry; type: functional, cell-based
[28] = tested on: NCI-H522; assay: Induction of ferroptosis in human NCI-H522 cells assessed as reduction in cell viability at 7.68 uM incubated for 3 days in presence of liproxstatin-1 by methylene blue staining based spectrophotometric analysis; type: functional; conditions: time 3.0 day
[29] = tested on: NCI-H522; assay: Induction of ferroptosis in human NCI-H522 cells assessed as cell viability incubated for 3 days in presence of liproxstatin-1 by methylene blue staining based spectrophotometric analysis relative to control; type: functional; conditions: time 3 day
[30] = tested on: NCI-H522; assay: Induction of ferroptosis in human NCI-H522 cells assessed as increase in intracellular lipid peroxidation accumulation at 4.08 uM incubated for 6 hrs by C11 BODIPY 581/591 staining based flow cytometry; type: functional, cell-based

Glucose-6-phosphate 1-dehydrogenase (Homo sapiens), sequence (P11413 whole entry): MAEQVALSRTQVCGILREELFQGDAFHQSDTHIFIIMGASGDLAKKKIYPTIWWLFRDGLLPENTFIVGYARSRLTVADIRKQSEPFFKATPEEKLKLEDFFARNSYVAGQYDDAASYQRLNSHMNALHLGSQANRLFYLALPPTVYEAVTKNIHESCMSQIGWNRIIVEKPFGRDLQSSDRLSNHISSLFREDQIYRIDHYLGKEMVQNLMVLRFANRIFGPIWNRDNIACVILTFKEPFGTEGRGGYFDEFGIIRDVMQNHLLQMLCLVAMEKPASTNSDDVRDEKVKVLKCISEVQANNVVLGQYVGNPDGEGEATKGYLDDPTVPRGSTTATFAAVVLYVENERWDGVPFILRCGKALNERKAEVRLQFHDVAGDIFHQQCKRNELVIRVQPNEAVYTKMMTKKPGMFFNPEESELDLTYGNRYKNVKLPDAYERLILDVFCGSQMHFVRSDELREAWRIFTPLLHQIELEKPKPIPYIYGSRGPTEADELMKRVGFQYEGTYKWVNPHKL
Phospholipid hydroperoxide glutathione peroxidase GPX4 (Homo sapiens), sequence (P36969 whole entry): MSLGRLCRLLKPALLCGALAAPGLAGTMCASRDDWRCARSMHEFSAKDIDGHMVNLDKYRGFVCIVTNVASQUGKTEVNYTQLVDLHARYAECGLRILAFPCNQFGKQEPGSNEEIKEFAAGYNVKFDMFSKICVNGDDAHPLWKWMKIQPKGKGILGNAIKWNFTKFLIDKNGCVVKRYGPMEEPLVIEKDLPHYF

SMILES | CC50 [1] [µM] | CC50 [2] [µM] | CC50 [3] [µM] | CC50 [4] [µM] | CC50 [5] [µM] | CC50 [6] [µM] | further results
C#Cc1nc(C2=C(C)C(=O)NCC2)cs1 | 5.4 | 20.2 | 10.9 | 4.89 | 7.81 | 9.32 | 
C#CCCC(=O)Nc1ccc(C(=O)c2ccc(NC(=O)CO/N=C3\CC(c4csc(Br)n4)=C(C)C3O)cc2)cc1 (stereo not drawn) | > 20 |  |  | > 20 |  | > 20 | 
C#Cc1nc(C2=C(C)C(O)/C(=N\OCc3ccccc3)C2)cs1 (stereo not drawn) | 1.18 | 2.17 | 3.02 | 0.93 | > 20 | 13.4 | 
C#Cc1nc(C2=C(C)C(OC(=O)C(c3ccccc3)c3ccccc3)/C(=N\OC(=O)C(c3ccccc3)c3ccccc3)C2)cs1 (stereo not drawn) | 3.5 | 9.34 | 5.02 | 1.85 | 9.1 | 14.9 | 
CCN(CC)c1ccc2cc(C(=O)NC3CCC(c4csc(Br)n4)=C3C)c(=O)oc2c1 (stereo not drawn) | > 20 |  |  | > 20 |  | > 20 | 
COc1ccc(N(C(=O)CCl)C(C(=O)NCCc2ccccc2)c2cccs2)cc1Cl (stereo not drawn) |  |  |  |  |  |  | inhibition [7]: Active; inhibition [8]: inactive
C#Cc1nc(C2=C(C)C(OC(=O)C(C)(C)C)/C(=N\OC(=O)C(C)(C)C)C2)cs1 (stereo not drawn) | 0.411 | 0.387 | 0.472 | 0.033 | 3.39 | 0.44 | 
CC1=C(c2csc(Br)n2)C/C(=N\OCC(=O)Nc2ccc3oc(=O)c(C)cc3c2)C1=O | > 20 |  |  | > 20 |  | > 20 | 
C#Cc1nc(C2=C(C)C(OC(=O)c3ccccc3)/C(=N\OC(=O)c3ccccc3)C2)cs1 (stereo not drawn) | 0.55 | 0.84 | 0.58 | 0.08 | 0.22 | 0.54 | 
COC(=O)c1ccc([C@H]2c3[nH]c4ccccc4c3C[C@H](C(=O)OC)N2C(=O)CCl)cc1 | 1.1 | 2.84 | 0.31 | 0.14 | 2.46 | 0.22 | CC50 [9]: 0.05 µM; CC50 [10]: 0.04 µM; Activity [11]: 50%; Activity [12]: Active; Activity [13]: Active; Activity [14]: Toxic; Activity [15]: Toxic; Activity [16]: inactive
C#Cc1nc(C2=C(C)C(NC(=O)c3cc4ccc(N(CC)CC)cc4oc3=O)CC2)cs1 (stereo not drawn) | 4.56 |  |  | 4.58 |  | 1.2 | Activity [17]: inactive
C#Cc1nc(C2=C(C)C(O)/C(=N/O)C2)cs1 (stereo not drawn) | 4.68 | > 20 | 5.55 | 5.77 | > 20 | 6.57 | 
C#Cc1nc(C2=C(C)C(OC(=O)CCC)/C(=N/OC(=O)CCC)C2)cs1 (stereo not drawn) | 0.13 | 1.93 | 0.28 | 0.19 | 5.85 | 0.83 | Activity [18]: Active; Activity [19]: ~60%; Activity [12]: Active; Activity [13]: Active; Activity [14]: Toxic; Activity [15]: Toxic
C#Cc1nc(C2=C(C)C(OC(=O)CC)/C(=N/OC(=O)CC)C2)cs1 (stereo not drawn) | 0.12 | 2.06 | 0.59 | 0.15 | 13.4 | 0.18 | Activity [20]: Active; Activity [21]: ~60%; Activity [12]: Active; Activity [13]: Active; Activity [14]: Toxic; Activity [15]: Toxic; Activity [22]: 0.13; inhibition [23]: Active; inhibition [24]: Active; inhibition [8]: inactive
C#Cc1nc(C2=C(C)C(O)CC2)cs1 (racemic) |  | 10.3 |  | 3.07 | 14.9 | 6.28 | Activity [25]: 50%; Activity [26]: Active; Activity [27]: Active; Activity [12]: inactive; Activity [13]: inactive; Activity [14]: Non-Toxic; Activity [15]: Non-Toxic; Activity [28]: inactive; inhibition [24]: Active; inhibition [8]: inactive
C#Cc1nc(C2=C(C)C(=O)/C(=N/OC(C)=O)C2)cs1 | 11 | > 20 | > 20 | > 20 | > 20 | 18.5 | 
C#Cc1nc(C2=C(C)/C(=N/OCc3ccccc3)CC2)cs1 | 1.36 | 2.41 | 2.54 | 0.81 | 19.3 | 4.17 | Activity [25]: 50%; Activity [26]: Active; Activity [29]: 85%; Activity [30]: Active; Activity [12]: Active; Activity [13]: Active; Activity [14]: Non-Toxic; Activity [15]: Non-Toxic
C#CCO/N=C1\CC(c2csc(Br)n2)=C(C)C1O (stereo not drawn) | > 20 |  |  | > 20 |  | > 20 | 
C#Cc1nc(C2=C(C)C(=O)/C(=N/O)C2)cs1 | > 20 | > 20 | > 20 | 5.29 | > 20 | 8.05 | 
C#Cc1nc(C2=C(C)C(=O)/C(=N/OCC(=O)Nc3ccc4oc(=O)c(C)cc4c3)C2)cs1 | > 20 |  |  | > 20 |  | > 20 | 
CC1=C(c2csc(Br)n2)CCC1O (stereo not drawn) | > 20 |  |  | > 20 |  | > 20 | 
C#Cc1nc(C2=C(C)C(OC(=O)CCCCCCC)/C(=N/OC(=O)CCCCCCC)C2)cs1 (stereo not drawn) | > 20 | > 20 | > 20 | > 20 | > 20 | 19.1 | 
